Measurements taken from patent US8017398B2, “Method for assaying protein-protein interaction” (Life Technologies Corporation, priority 2003, dated 2011).

Assays:
ADRB2 = target: T1, ADRB2 (Homo sapiens, UniProt P07550); assay: chemiluminescence β-galactosidase reporter assay, ADRB2-tTA + ARRB2-TEV-NIa protease, clone 41 cells; format: cell-based; details: ADRB2-tTA low efficiency cleavage site
T1 construct: to produce three, full length constructs encoding fusion proteins; expressed in transfected cells; host or cells: HEK-293T and clone 41 (HEK-293T derivative)
T1 sequence (P07550 whole entry, the tested form may be a part): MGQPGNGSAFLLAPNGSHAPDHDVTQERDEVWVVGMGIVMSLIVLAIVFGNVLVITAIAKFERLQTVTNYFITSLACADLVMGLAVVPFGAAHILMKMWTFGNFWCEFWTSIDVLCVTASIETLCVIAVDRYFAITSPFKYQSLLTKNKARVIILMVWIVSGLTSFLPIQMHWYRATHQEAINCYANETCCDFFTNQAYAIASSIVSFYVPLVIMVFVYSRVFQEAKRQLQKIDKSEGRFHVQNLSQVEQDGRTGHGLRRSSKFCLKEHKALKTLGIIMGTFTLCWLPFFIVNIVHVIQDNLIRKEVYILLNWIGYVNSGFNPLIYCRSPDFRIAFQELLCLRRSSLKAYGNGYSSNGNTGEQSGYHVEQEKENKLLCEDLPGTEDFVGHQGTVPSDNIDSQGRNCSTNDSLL

[1] = target: T2, human Type I Interferon Receptor (Homo sapiens, UniProt P17181+P48551); assay: IFNAR1-GAL4-NF-κB + IFNAR2.2-TEV luciferase reporter assay, CHO-K1 cells; format: cell-based, hamster; details: control pcDNA3 plasmid
T2 construct: expressed in transfected cells; host or cells: CHO-K1
T2 sequence (P17181 28-557): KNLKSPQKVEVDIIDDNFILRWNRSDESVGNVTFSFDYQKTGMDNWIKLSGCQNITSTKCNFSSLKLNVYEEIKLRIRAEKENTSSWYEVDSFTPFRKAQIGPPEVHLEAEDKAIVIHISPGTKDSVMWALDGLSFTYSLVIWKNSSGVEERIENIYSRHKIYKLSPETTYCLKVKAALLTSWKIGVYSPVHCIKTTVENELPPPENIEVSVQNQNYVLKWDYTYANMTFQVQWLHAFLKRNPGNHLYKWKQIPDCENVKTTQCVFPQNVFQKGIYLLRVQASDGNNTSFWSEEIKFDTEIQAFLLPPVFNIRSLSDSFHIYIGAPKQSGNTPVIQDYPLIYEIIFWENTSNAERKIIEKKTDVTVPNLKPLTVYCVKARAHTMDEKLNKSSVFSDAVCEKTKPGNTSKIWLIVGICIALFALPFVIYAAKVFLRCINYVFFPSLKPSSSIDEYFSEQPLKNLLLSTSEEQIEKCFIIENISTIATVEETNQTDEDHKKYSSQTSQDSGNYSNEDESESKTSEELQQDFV
T2 sequence (P48551 27-515): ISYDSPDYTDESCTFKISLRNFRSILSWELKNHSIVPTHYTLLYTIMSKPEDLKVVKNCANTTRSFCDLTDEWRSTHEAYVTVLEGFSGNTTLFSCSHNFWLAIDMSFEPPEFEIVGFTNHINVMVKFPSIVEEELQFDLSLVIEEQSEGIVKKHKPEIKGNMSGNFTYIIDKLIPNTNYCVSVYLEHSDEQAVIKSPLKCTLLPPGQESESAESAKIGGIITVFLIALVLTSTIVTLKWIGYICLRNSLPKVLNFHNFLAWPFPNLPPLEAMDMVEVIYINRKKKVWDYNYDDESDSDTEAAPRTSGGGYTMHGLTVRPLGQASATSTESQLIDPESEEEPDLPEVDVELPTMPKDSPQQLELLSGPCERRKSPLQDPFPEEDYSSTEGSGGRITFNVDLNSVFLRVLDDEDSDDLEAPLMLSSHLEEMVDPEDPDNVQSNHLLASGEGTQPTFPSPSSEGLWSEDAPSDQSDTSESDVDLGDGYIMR

Row | effect on reporter gene activity in cells transfected with the reporter and control plasmids [1] | Compound | induction of reporter gene activity by agonist of another GPCR (P2Y1, P2Y2) (ADRB2)
1 | – | Nc1ncnc2c1ncn2[C@@H]1O[C@H](COP(=O)(O)OP(=O)(O)OP(=O)(O)O)[C@@H](O)[C@H]1O [ATP] | Stimulation of another GPCR pathway was irrelevant
2 | no effect | IFN-α | –
